What is called inhibition is how much of the control response was suppressed.

The values below come from EP0998931A1, “REMEDIES FOR DRY EYE” (priority 1997, dated 1998).

Where two headings read alike, the source gives them in different places.

In this test the test system is TG-I m RNA. As to the kind of experiment: Expression amounts of TG-I mRNA by RT-PCR in cultured corneal epithelial cells (G3PDH internal standard). The test is classed as cell-based, human. To be noted: for inhibition at 1 µM: read-out: inhibition (of TG-I m RNA expression). As for the experimental part: Glyceraldehyde-3-phosphoric acid dehydrogenase (G3PDH) was used as an internal standard in consideration of scatter of template total RNA amounts.
Cultured SV40 immortalized human corneal epithelial cells (1 × 10^6 cells) were cultured in a culture medium (DMEM/F12) containing a test compound under a condition of 37°C and 5% CO2 for 72 hours. After culturing, total RNA was extracted according to the AGPC method. Then, RT-PCR was carried out using a primer which is specific for TG-I m RNA or G3PDH m RNA using a Takara RNA-PCR kit (AMV). PCR products were electrophoresed on 1% agarose gel, and bands were detected with a transilluminator. Cells cultured in a culture medium containing no test compound in the same manner were used as a control.
The expression amounts of TG-I m RNA were calculated according to the following equation 1 so that an expression amount in the control was 100. Expression amount = (B/A) × 100 [formula] • A: A band area of a TG-I amplified fragment on the basis of a band area of a G3PDH amplified fragment in the control • B: A band area of a TG-I amplified fragment on the basis of a band area of a G3PDH amplified fragment in the presence of the test compound

As to `C=C1/C(=C\C=C2/CCC[C@]3(C)[C@@H]([C@H](C)CCCC(C)(C)O)CC[C@@H]23)C[C@@H](O)C[C@@H]1O` [1α , 25-Dihydroxyvitamin D3], the mrna remaining at 1 µM runs as follows: (Homo sapiens, Corneal epithelial cell, 72 h, read-out: Expression amount) 48%; (Homo sapiens, Corneal epithelial cell, 72 h, read-out: expression amounts of TG-I m RNA in the corneal epithelial cells) 48%. Besides, the inhibition at 1 µM (Homo sapiens, Corneal epithelial cell, 72 h) came out at 52%. Where the note is “comparative compound at 1000 nM”, the “inhibitory effect relative to that of 1α , 24 (R)-dihydroxyvitamin D3” value is recorded as “one tenth or less”.

As to `C=C1/C(=C\C=C2/CCC[C@]3(C)[C@@H]([C@H](C)CC[C@@H](O)C(C)C)CC[C@@H]23)C[C@@H](O)C[C@@H]1O` [1α , 24 (R)-Dihydroxyvitamin D3], under “10 nM, 100 nM and 1000 nM”, the “inhibition of TG-I m RNA expression, dependence on concentration” value is recorded as “concentration-dependent inhibition was observed”. The mrna remaining at 0.01 µM is 66% (Corneal epithelial cell, 10 nM test compound, 72 hours culture, SV40 immortalized human corneal epithelial cells, control = 100, read-out: Expression amount) and 66% (Homo sapiens, Corneal epithelial cell, 72 h, concentration of 10 nM, relative to control, read-out: expression amounts of TG-I m RNA in the corneal epithelial cells). For the same compound, the mrna remaining at 0.1 µM (Corneal epithelial cell, 100 nM test compound, 72 hours culture, SV40 immortalized human corneal epithelial cells, control = 100, read-out: Expression amount) stood at 39% and the mrna remaining at 0.1 µM (Homo sapiens, Corneal epithelial cell, 72 h, concentration of 100 nM, relative to control, read-out: expression amounts of TG-I m RNA in the corneal epithelial cells) came to 39%. Also, the mrna remaining at 1 µM reads like this: (Corneal epithelial cell, 1000 nM test compound, 72 hours culture, SV40 immortalized human corneal epithelial cells, control = 100, read-out: Expression amount) 22%; (Homo sapiens, Corneal epithelial cell, 72 h, concentration of 1000 nM, relative to control, read-out: expression amounts of TG-I m RNA in the corneal epithelial cells) 22%. 0.01 µM produced 34% inhibition (Homo sapiens, Corneal epithelial cell, 72 h, concentration of 10 nM). Under “Homo sapiens, Corneal epithelial cell, 72 h, concentration of 100 nM”, this compound returned an inhibition at 0.1 µM of 61%. Further, where the note is “Homo sapiens, Corneal epithelial cell, 72 h, concentration of 1000 nM”, the inhibition at 1 µM came to 78%.
